From patent US9763445B2, “Safened herbicidal compositions comprising a pyridine carboxylic acid herbicide” (Dow AgroSciences, LLC, priority 2014, dated 2017)
Read-outs that look alike come from different tables or passages of the source.

Key:
spring barley (HORVS) = assay: Postemergence greenhouse trial, % visual injury on spring barley; type: in vivo, Hordeum vulgare; settings: HORVS
Outline: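 Greenhouse crops at second to third true leaf stage sprayed postemergence at 187 L/ha with herbicide (g ae/ha) plus safener (g ai/ha) in acetone/DMSO diluted into 1.5% v/v Agri-dex. Injury scored visually versus solvent-blank controls after 20-22 d, 0 (none) to 100% (complete kill); expected mixture effects by Colby's equation.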

thistle (CIRAR) = assay: Postemergence greenhouse trial, % visual injury on thistle; type: in vivo, Cirsium arvense; settings: Cirsium arvense, post-emergence, CIRAR, read-out: % visual injury, Ob
Experimental: Seeds of the desired test plant species were planted in Sun Gro MetroMix® 306 planting mixture, which typically has a pH of 6.0 to 6.8 and an organic matter content of about 30 percent, in plastic pots with a surface area of 103.2 square centimeters (cm^2). When required to ensure good germination and healthy plants, a fungicide treatment and/or other chemical or physical treatment was applied. The plants were grown for 7-36 days (d) in a greenhouse with an approximate 14-hour (h) photoperiod which was maintained at about 23° C. during the day and 22° C. during the night. Nutrients and water were added on a regular basis and supplemental lighting was provided with overhead metal halide 1000-Watt lamps as necessary. The plants were employed for testing when they reached the second or third true leaf stage.
Weighed amounts of technical material were dissolved in a volume of 97:3 volume per volume (v/v) acetone/dimethyl sulfoxide (DMSO) to stock solutions. […] The concentrated stock solutions were diluted with an aqueous mixture of 1.5% v/v of Agri-dex crop oil concentrate to provide the appropriate application rates. Compound requirements are based upon a 12 milliliter (mL) application volume at a rate of 187 liters per hectare (L/ha). Stocks solutions of the safeners were prepared following the same procedure. Spray solutions of the safeners and experimental compound mixtures were prepared by adding the stock solutions to the appropriate amount of dilution solution to form a 12 mL spray solution in two-way combinations. Formulated compounds were applied to the plant material with an overhead Mandel track sprayer equipped with 8002E nozzles calibrated to deliver 187 L/ha over an application area of 0.503 square meters (m^2) at a spray height of 18 inches (43 centimeters (cm)) above average plant canopy. Control plants were sprayed in the same manner with the solvent blank. All herbicide application (component a) rates are in g ae/ha and all safener (component b) rates are in g ai/ha.
The treated plants and control plants were placed in a greenhouse as described above and watered by sub-irrigation to prevent wash-off of the test compounds. After 20-22 d, the condition of the test plants as compared with that of the control plants was determined visually and scored on a scale of 0 to 100 percent where 0 corresponds to no injury and 100 corresponds to complete kill. The condition of the test plants was compared with that of the control plants as determined visually and scored on a scale of 0 to 100 percent, where 0 corresponds to no injury and 100 corresponds to complete kill. Colby's equation was used to determine the herbicidal effects expected from the mixtures.
The safener cloquintocet-mexyl was combined with compound 1, compound 2, compound 4, compound 5, and compound 6, and applied to corn/maize (ZEAMX) and spring wheat (TRZAS) and the phytotoxicity of the herbicidal compositions was measured. In addition, the efficacy of the herbicidal composition on velvetleaf (ABUTH, Abutilon theophrasti), pigweed (AMARE, Amaranthus retroflexus), winter rape (BRSNW, Brassica napus), lambsquarters (CHEAL, Chenopodium album), thistle (CIRAR, Cirsium arvense), nutsedge (CYPES, Cyperus esculentus), poinsettia (EPHHL, Euphorbia heterophylla), wild buckwheat (POLCO, Polygonum convolvulus), giant foxtail (SETFA, Setaria faberi), and chickweed (STEME, Stellaria media) was evaluated. […]

kochia (KCHSC) = assay: Postemergence greenhouse trial, % visual injury on kochia; type: in vivo, Kochia scoparia; settings: Bassia scoparia, post-emergence, KCHSC, read-out: % visual injury, Ob
Outline: (§1)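 Herbicide rates g ae/ha, safener (cloquintocet-mexyl) rates g ai/ha; spray carrier 1.5% v/v crop oil concentrate, 187 L/ha, 2nd–3rd leaf stage. Rating: visual % injury at 20-22 d.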

Russian thistle (SASKR) = assay: Postemergence greenhouse trial, % visual injury on Russian thistle; type: in vivo, Salsola kali; settings: SASKR
wild mustard (SINAR) = assay: Postemergence greenhouse trial, % visual injury on wild mustard; type: in vivo, Sinapis arvensis; settings: Brassica, post-emergence, SINAR, read-out: % visual injury, Ob
Outline: as §1

lambsquarters (CHEAL) = assay: Postemergence greenhouse trial, % visual injury on lambsquarters; type: in vivo, Chenopodium album; settings: Chenopodium album, post-emergence, CHEAL, applied alone, read-out: % visual injury, Ob
Outline: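 Plants at second or third true leaf stage, greenhouse-grown (14 h photoperiod, ~23/22° C.), sprayed postemergence with compounds alone or with safener cloquintocet-mexyl in 1.5% v/v Agri-dex crop oil at 187 L/ha. Visual injury scored 0–100% versus solvent-blank controls after 20-22 d; expected mixture effects by Colby's equation.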

CO/C=N/c1c(F)c(-c2ccc3cc[nH]c3c2F)nc(C(=O)OC)c1Cl [compound 10]
% visual injury, Ob (spring barley (HORVS); compound 4.380 g/ha, CQC-m 0): 0%
% visual injury, Ob (spring barley (HORVS); compound 8.75 g/ha, CQC-m 0): 10%
% visual injury, Ob (spring barley (HORVS); compound 17.5 g/ha, CQC-m 0): 20%
% visual injury, Ob (spring barley (HORVS); compound 35 g/ha, CQC-m 0): 20%
% visual injury, Ob (spring barley (HORVS); compound 70 g/ha, CQC-m 0): 40%
pest or weed control at 4.38 g/ha (thistle (CIRAR); compound 4.380 g/ha, CQC-m 0): 30%
pest or weed control at 8.75 g/ha (thistle (CIRAR); compound 8.75 g/ha, CQC-m 0): 40%
pest or weed control at 17.5 g/ha (thistle (CIRAR); compound 17.5 g/ha, CQC-m 0): 60%
pest or weed control at 35 g/ha (thistle (CIRAR); compound 35 g/ha, CQC-m 0): 85%
pest or weed control at 70 g/ha (thistle (CIRAR); compound 70 g/ha, CQC-m 0): 100%
pest or weed control at 4.38 g/ha (kochia (KCHSC); compound 4.380 g/ha, CQC-m 0): 80%
pest or weed control at 8.75 g/ha (kochia (KCHSC); compound 8.75 g/ha, CQC-m 0): 80%
pest or weed control at 17.5 g/ha (kochia (KCHSC); compound 17.5 g/ha, CQC-m 0): 100%
pest or weed control at 35 g/ha (kochia (KCHSC); compound 35 g/ha, CQC-m 0): 100%
pest or weed control at 70 g/ha (kochia (KCHSC); compound 70 g/ha, CQC-m 0): 100%
% visual injury, Ob (Russian thistle (SASKR); compound 4.380 g/ha, CQC-m 0): 70%
% visual injury, Ob (Russian thistle (SASKR); compound 8.75 g/ha, CQC-m 0): 80%
% visual injury, Ob (Russian thistle (SASKR); compound 17.5 g/ha, CQC-m 0): 87%
% visual injury, Ob (Russian thistle (SASKR); compound 35 g/ha, CQC-m 0): 90%
% visual injury, Ob (Russian thistle (SASKR); compound 70 g/ha, CQC-m 0): 93%
pest or weed control at 4.38 g/ha (wild mustard (SINAR); compound 4.380 g/ha, CQC-m 0): 90%
pest or weed control at 8.75 g/ha (wild mustard (SINAR); compound 8.75 g/ha, CQC-m 0): 93%
pest or weed control at 17.5 g/ha (wild mustard (SINAR); compound 17.5 g/ha, CQC-m 0): 97%
pest or weed control at 35 g/ha (wild mustard (SINAR); compound 35 g/ha, CQC-m 0): 100%
pest or weed control at 70 g/ha (wild mustard (SINAR); compound 70 g/ha, CQC-m 0): 100%

Nc1c(F)c(-c2ccc3scnc3c2)nc(C(=O)O)c1Cl [compound 17]
% visual injury, Ob (spring barley (HORVS); 4.375 g/ha, applied alone): 0%
% visual injury, Ob (spring barley (HORVS); 8.75 g/ha, applied alone): 15%
% visual injury, Ob (spring barley (HORVS); 17.5 g/ha, applied alone): 30%
% visual injury, Ob (spring barley (HORVS); 35 g/ha, applied alone): 40%
% visual injury, Ob (spring barley (HORVS); 70 g/ha, applied alone): 45%
pest or weed control at 4.375 g/ha (lambsquarters (CHEAL); 4.375 g/ha): 40%
pest or weed control at 8.75 g/ha (lambsquarters (CHEAL); 8.75 g/ha): 60%
pest or weed control at 17.5 g/ha (lambsquarters (CHEAL); 17.5 g/ha): 70%
pest or weed control at 35 g/ha (lambsquarters (CHEAL); 35 g/ha): 80%
pest or weed control at 70 g/ha (lambsquarters (CHEAL); 70 g/ha): 85%
pest or weed control at 4.375 g/ha (thistle (CIRAR); applied alone): 0%
pest or weed control at 8.75 g/ha (thistle (CIRAR); 8.75 g/ha, applied alone): 0%
pest or weed control at 17.5 g/ha (thistle (CIRAR); 17.5 g/ha, applied alone): 10%
pest or weed control at 35 g/ha (thistle (CIRAR); 35 g/ha, applied alone): 20%
pest or weed control at 70 g/ha (thistle (CIRAR); 70 g/ha, applied alone): 20%
pest or weed control at 4.375 g/ha (kochia (KCHSC); applied alone): 85%
pest or weed control at 8.75 g/ha (kochia (KCHSC); 8.75 g/ha, applied alone): 90%
pest or weed control at 17.5 g/ha (kochia (KCHSC); 17.5 g/ha, applied alone): 95%
pest or weed control at 35 g/ha (kochia (KCHSC); 35 g/ha, applied alone): 100%
pest or weed control at 70 g/ha (kochia (KCHSC); 70 g/ha, applied alone): 100%
pest or weed control at 4.375 g/ha (wild mustard (SINAR); applied alone): 93%
pest or weed control at 8.75 g/ha (wild mustard (SINAR); 8.75 g/ha, applied alone): 93%
pest or weed control at 17.5 g/ha (wild mustard (SINAR); 17.5 g/ha, applied alone): 95%
pest or weed control at 35 g/ha (wild mustard (SINAR); 35 g/ha, applied alone): 95%
pest or weed control at 70 g/ha (wild mustard (SINAR); 70 g/ha, applied alone): 100%

Nc1c(F)c(-c2ccc3ccoc3c2)nc(C(=O)O)c1Cl [compound 20]
% visual injury, Ob (spring barley (HORVS); 4.375 g/ha, applied alone): 0%
% visual injury, Ob (spring barley (HORVS); 8.75 g/ha, applied alone): 10%
% visual injury, Ob (spring barley (HORVS); 17.5 g/ha, applied alone): 20%
% visual injury, Ob (spring barley (HORVS); 35 g/ha, applied alone): 30%
% visual injury, Ob (spring barley (HORVS); 70 g/ha, applied alone): 40%
pest or weed control at 4.375 g/ha (thistle (CIRAR); applied alone): 0%
pest or weed control at 8.75 g/ha (thistle (CIRAR); 8.75 g/ha, applied alone): 10%
pest or weed control at 17.5 g/ha (thistle (CIRAR); 17.5 g/ha, applied alone): 20%
pest or weed control at 35 g/ha (thistle (CIRAR); 35 g/ha, applied alone): 40%
pest or weed control at 70 g/ha (thistle (CIRAR); 70 g/ha, applied alone): 70%
pest or weed control at 4.375 g/ha (kochia (KCHSC); applied alone): 70%
pest or weed control at 8.75 g/ha (kochia (KCHSC); 8.75 g/ha, applied alone): 80%
pest or weed control at 17.5 g/ha (kochia (KCHSC); 17.5 g/ha, applied alone): 85%
pest or weed control at 35 g/ha (kochia (KCHSC); 35 g/ha, applied alone): 90%
pest or weed control at 70 g/ha (kochia (KCHSC); 70 g/ha, applied alone): 95%
% visual injury, Ob (Russian thistle (SASKR); 4.375 g/ha, applied alone): 20%
% visual injury, Ob (Russian thistle (SASKR); 8.75 g/ha, applied alone): 40%
% visual injury, Ob (Russian thistle (SASKR); 17.5 g/ha, applied alone): 60%
% visual injury, Ob (Russian thistle (SASKR); 35 g/ha, applied alone): 80%
% visual injury, Ob (Russian thistle (SASKR); 70 g/ha, applied alone): 80%
pest or weed control at 4.375 g/ha (wild mustard (SINAR); applied alone): 60%
pest or weed control at 8.75 g/ha (wild mustard (SINAR); 8.75 g/ha, applied alone): 60%
pest or weed control at 17.5 g/ha (wild mustard (SINAR); 17.5 g/ha, applied alone): 83%
pest or weed control at 35 g/ha (wild mustard (SINAR); 35 g/ha, applied alone): 80%
pest or weed control at 70 g/ha (wild mustard (SINAR); 70 g/ha, applied alone): 93%
